Laboratory results: patent US20230287051A1, “INHIBITORS OF COMPLEMENT FACTOR C3 AND THEIR MEDICAL USES” (ZP SPV 3 K/S, priority 2020, published 2023)
Numbered stars: 1 amine (or outer) side, 2 acyl side, 3 side chain; on linkers, the order of the positions; unused ones are H or OH. Bridge positions count the residues as written; N and C are the ends. Square brackets hold non-standard residues; d marks the D form. Side chains are listed from the residue outwards. Peptide text beside a SMILES is read from it. * marks the point of attachment. Trp(1-Me) = Cn1cc(C[C@H](N)C(=O)O)c2ccccc21; C18 diacid = O=C(O)CCCCCCCCCCCCCCCCC(=O)*; γGlu = O=C(O)[C@H](CCC(=O)[*:2])N[*:1]; AEEA = NCCOCCOCC(=O)O; CH2 = C([*:1])[*:2]; Sar = CNCC(=O)O

Each compound was assayed on classical complement pathway (assay: In vitro haemolysis assay (inhibition of classical complement pathway)). Details: human serum, sensitized sheep RBC, 30 minutes at 37° C., absorbance at 405 nm, n=>2; read-out: IC50, inhibition of hemolysis.
Assay type: cell-based
Description: The in vitro effect of some of the compounds described herein was assessed by measuring their inhibitory effect of the classical complement pathway in a haemolysis assay.
Briefly, compounds described herein and reference compounds were dissolved in DMSO and diluted in Tris/Casein Assay Buffer (10 mM Tris, 145 mM NaCl, 0.5 mM MgCl2, 0.15 mM CaCl2, and 0.1% W/V casein, adjusted to pH 7.4) as 9-point serial dilutions in a 96-well plate. Sensitized sheep red blood cells (RBC) coated with rabbit anti-sheep erythrocyte antiserum (Complement Technology, Inc., TX, USA) were washed in Tris/asein Assay Buffer. 50 μL from each well of diluted compound was added to a 96-well plate containing 50 μL diluted human serum (Complement Technology, Inc., TX, USA) and incubated for 15 minutes at room temperature. The serum dilution factor was optimized for every serum batch to obtain 70-90% of maximal haemolysis using the protocol. Then 50 μL sensitized sheep RBCs were added to all wells ([…]).
After 30 minutes of incubation at 37° C. with gentle agitation, the reaction was stopped by addition of 50 μL Tris STOP Buffer per well (10 mM EDTA, 10 mM Tris, 145 mM NaCl adjusted to pH 7.4). The RBCs were then removed by centrifugation and the resulting supernatant measured for hemolysis by absorbance at 405 nm.
The response was normalized relative to a positive and negative control (vehicle) to calculate the IC50 (nM) from the concentration response curve using the 4-parameter logistic (4PL) nonlinear model for curve fitting (Table 2). All values are based on n=>2 independent determinations.

Q: With “Ac-KSGEF[C(1)]I[1-Me-Trp]QDW[Sar]EHR[C(1)]TEGE[Peg3][Peg3]-K([17-Carboxy-heptadecanoyl][yGlu]G[yGlu])-NH2 [Compound 21]” as the compound, how does the IC50 read?
A: < 100 nM

Q: Which IC50 does the source give for “Ac-SEF[C(1)]I[[1-Me-Trp]QDW[Sar]EHR[C(1)]TEGE[Peg3]ES-K([17-Carboxy-heptadecanoyl][yGlu])-NH2 [Compound 11]” here?
A: < 250 nM

Q: `CC[C@H](C)[C@@H]1NC(=O)[C@@H](NC(=O)[C@H](Cc2ccccc2)NC(=O)[C@H](CCC(=O)O)NC(=O)[C@H](CCC(N)=O)NC(=O)[C@H](CCCCN)NC(=O)[C@H](CO)NC(C)=O)CSCSC[C@@H](C(=O)N[C@H](C(=O)N[C@@H](CCC(=O)O)C(=O)NCC(=O)N[C@@H](CCC(=O)O)C(=O)NCCOCCOCC(=O)NCCOCCOCC(=O)N[C@@H](CCCCNC(=O)CC[C@H](NC(=O)CNC(=O)CC[C@H](NC(=O)CCCCCCCCCCCCCCCCC(=O)O)C(=O)O)C(=O)O)C(N)=O)[C@@H](C)O)NC(=O)[C@H](CCCNC(=N)N)NC(=O)[C@H](Cc2c[nH]cn2)NC(=O)[C@H](CCC(=O)O)NC(=O)CN(C)C(=O)[C@H](Cc2c[nH]c3ccccc23)NC(=O)[C@H](CC(=O)O)NC(=O)[C@H](CCC(N)=O)NC(=O)[C@H](Cc2cn(C)c3ccccc23)NC1=O` [Compound 26, Ac-SKQEF[C(1)]I[1-Me-Trp]QDW[Sar]EHR[C(1)]TEGE[Peg3][Peg3]-K([17-Carboxy-heptadecanoyl][yGlu]G[yGlu])-NH2] (Ac-SKQEFCI[Trp(1-Me)]QDW[Sar]EHRCTEGE[AEEA][AEEA]K([γGlu-Gly-γGlu-C18 diacid])-NH2; linker 6-16 via CH2) was tested. Which IC50 did it give?
A: < 100 nM

Q: For `CC[C@H](C)[C@@H]1NC(=O)[C@@H](NC(=O)[C@H](Cc2ccccc2)NC(=O)[C@H](CCC(=O)O)NC(C)=O)CSCSC[C@@H](C(=O)N[C@H](C(=O)N[C@@H](CCC(=O)O)C(=O)N[C@@H](C)C(=O)NCCOCCOCC(=O)NCCOCCOCC(=O)N[C@@H](CCCCNC(=O)CC[C@H](NC(=O)CNC(=O)CC[C@H](NC(=O)CCCCCCCCCCCCCCCCC(=O)O)C(=O)O)C(=O)O)C(N)=O)[C@@H](C)O)NC(=O)[C@H](CCCNC(=N)N)NC(=O)[C@H](Cc2c[nH]cn2)NC(=O)[C@H](CCC(=O)O)NC(=O)CN(C)C(=O)[C@H](Cc2c[nH]c3ccccc23)NC(=O)[C@H](CC(=O)O)NC(=O)[C@H](CCC(N)=O)NC(=O)[C@H](Cc2cn(C)c3ccccc23)NC1=O` [Compound 12, Ac-EF[C(1)]I[1-Me-Trp]QDW[Sar]EHR[C(1)]TEA[Peg3][Peg3]-K([17-Carboxy-heptadecanoyl][yGlu]G[yGlu])-NH2] (Ac-EFCI[Trp(1-Me)]QDW[Sar]EHRCTEA[AEEA][AEEA]K([γGlu-Gly-γGlu-C18 diacid])-NH2; linker 3-13 via CH2), which IC50 is on record?
A: < 100 nM

Q: With `CC[C@H](C)[C@@H]1NC(=O)[C@@H](NC(=O)[C@H](Cc2ccccc2)NC(=O)[C@H](CCC(=O)O)NC(=O)[C@H](CO)NC(C)=O)CSCSC[C@@H](C(=O)N(C)CC(=O)N[C@@H](CCC(=O)O)C(=O)NCC(=O)N[C@@H](CCC(=O)O)C(=O)NCCOCCOCC(=O)NCCOCCOCC(=O)N[C@@H](CCCCNC(=O)CC[C@H](NC(=O)CNC(=O)CC[C@H](NC(=O)CCCCCCCCCCCCCCCCC(=O)O)C(=O)O)C(=O)O)C(N)=O)NC(=O)[C@H](CCCNC(=N)N)NC(=O)[C@H](Cc2c[nH]cn2)NC(=O)[C@H](CCC(=O)O)NC(=O)CNC(=O)[C@H](Cc2c[nH]c3ccccc23)NC(=O)[C@H](CC(=O)O)NC(=O)[C@H](CCC(N)=O)NC(=O)[C@H](Cc2cn(C)c3ccccc23)NC1=O` [Compound 2, Ac-SEF[C(1)]I[1-Me-Trp]QDWGEHR[C(1)][Sar]EGE[Peg3][Peg3]-K([17-Carboxy-heptadecanoyl][yGlu]G[yGlu])-NH2] (Ac-SEFCI[Trp(1-Me)]QDWGEHRC[Sar]EGE[AEEA][AEEA]K([γGlu-Gly-γGlu-C18 diacid])-NH2; linker 4-14 via CH2) as the compound, how does the IC50 read?
A: < 500 nM

Q: `CC[C@H](C)[C@@H]1NC(=O)[C@@H](NC(=O)[C@H](Cc2ccccc2)NC(=O)[C@H](C)NC(=O)[C@H](CCC(N)=O)NC(=O)[C@H](CCC(=O)O)NC(=O)[C@H](CO)NC(C)=O)CSCSC[C@@H](C(=O)N[C@H](C(=O)N[C@@H](CCC(=O)O)C(=O)NCC(=O)N[C@@H](CCC(=O)O)C(=O)NCCOCCOCC(=O)NCCOCCOCC(=O)N[C@@H](CCCCNC(=O)CC[C@H](NC(=O)CNC(=O)CC[C@H](NC(=O)CCCCCCCCCCCCCCCCC(=O)O)C(=O)O)C(=O)O)C(N)=O)[C@@H](C)O)NC(=O)[C@H](CCCNC(=N)N)NC(=O)[C@H](Cc2c[nH]cn2)NC(=O)[C@H](CCC(=O)O)NC(=O)CN(C)C(=O)[C@H](Cc2c[nH]c3ccccc23)NC(=O)[C@H](CC(=O)O)NC(=O)[C@H](CCC(N)=O)NC(=O)[C@H](Cc2cn(C)c3ccccc23)NC1=O` [Compound 25, Ac-SEQAF[C(1)]I[1-Me-Trp]QDW[Sar]EHR[C(1)]TEGE[Peg3][Peg3]-K([17-Carboxy-heptadecanoyl][yGlu]G[yGlu])-NH2] (Ac-SEQAFCI[Trp(1-Me)]QDW[Sar]EHRCTEGE[AEEA][AEEA]K([γGlu-Gly-γGlu-C18 diacid])-NH2; linker 6-16 via CH2) was tested. Which IC50 did it give?
A: < 100 nM

Q: How did the IC50 turn out when “Ac-SEY[C(1)]I[1-Me-Trp]QDW[Sar]EHR[C(1)]TEGE[Peg3]ES-K([17-Carboxy-heptadecanoyl][yGlu])-NH2 [Compound 18]” was run?
A: < 250 nM

Q: Which IC50 does the source give for `CC[C@H](C)[C@@H]1NC(=O)[C@@H](NC(=O)[C@H](Cc2ccccc2)NC(=O)[C@H](CCC(=O)O)NC(=O)[C@H](CO)NC(C)=O)CSCSC[C@@H](C(=O)N(C)CC(=O)N[C@@H](CCC(=O)O)C(=O)NCCOCCOCC(=O)NCCOCCOCC(=O)N[C@@H](CCCCNC(=O)CC[C@H](NC(=O)CNC(=O)CC[C@H](NC(=O)CCCCCCCCCCCCCCCCC(=O)O)C(=O)O)C(=O)O)C(N)=O)NC(=O)[C@H](CCCNC(=N)N)NC(=O)[C@H](Cc2c[nH]cn2)NC(=O)[C@H](CCC(=O)O)NC(=O)CN(C)C(=O)[C@H](Cc2c[nH]c3ccccc23)NC(=O)[C@H](CC(=O)O)NC(=O)[C@H](CCC(N)=O)NC(=O)[C@H](Cc2cn(C)c3ccccc23)NC1=O` [Compound 7] (Ac-SEFCI[Trp(1-Me)]QDW[Sar]EHRC[Sar]E[AEEA][AEEA]K([γGlu-Gly-γGlu-C18 diacid])-NH2; linker 4-14 via CH2) here?
A: < 500 nM

Q: With “Ac-SEF[C(1)]I[1-Me-Trp]QDW[SarJAHR[C(1)]TEGE[Peg3]ES-K([17-Carboxy-heptadecanoyl][yGlu])-NH2 [Compound 13]” as the compound, how does the IC50 read?
A: < 250 nM

Q: Which IC50 does the source give for “Ac-EGSAY[C(1)]I[1-Me-Trp]QDWGEHR[C(1)][Sar]EK[yGlu]-K([17-Carboxy-heptadecanoyl][yGlu][Peg3][Peg3])-NH2 [Compound 3]” here?
A: < 500 nM

Q: With `CC[C@H](C)[C@H](NC(=O)[C@H](N)Cc1ccc(O)cc1)C(=O)N[C@H]1CSSC[C@@H](C(=O)N(C)[C@H](C(N)=O)[C@@H](C)CC)NC(=O)[C@H](CCCNC(=N)N)NC(=O)[C@H](Cc2c[nH]cn2)NC(=O)[C@H](C)NC(=O)CN(C)C(=O)[C@H](Cc2c[nH]c3ccccc23)NC(=O)[C@H](CC(=O)O)NC(=O)[C@H](CCC(N)=O)NC(=O)[C@H](Cc2cn(C)c3ccccc23)NC(=O)[C@H](C(C)C)NC1=O` [Cp40, H-{d}YIC(*)V[1-Me-Trp]QDW[SarJAHRC(*)[N-Me-Ile]-NH2, reference compound] as the compound, how does the IC50 read?
A: < 100 nM

Q: “Ac-SEF[C(1)]I[1-Me-Trp]QDW[Sar]EHR[C(1)][Sar]E[Peg3][Peg3]-K([17-Carboxy-heptadecanoyl]-[yGlu]G[yGlu]-NH2 [Compound 8]” was tested. Which IC50 did it give?
A: < 500 nM

Q: With “Ac-SEF[C(1)]I[1-Me-Trp]QDWGEHR[C(1)]TEGE[Peg3]ES-K([17-Carboxy-heptadecanoyl]-[yGlu]-NH2 [Compound 5]” as the compound, how does the IC50 read?
A: < 500 nM

Q: With “Ac-EQEVF[C(1)]I[1-Me-Trp]QDW[Sar]EHR[C(1)]TEGE[Peg3][Peg3]-K([17-Carboxy-heptadecanoyl][yGlu]G[yGlu])-NH2 [Compound 22]” as the compound, how does the IC50 read?
A: < 100 nM

Q: `CC[C@H](C)[C@@H]1NC(=O)[C@@H](NC(=O)[C@@H](NC(=O)[C@@H](Cc2ccc(O)cc2)NC(C)=O)[C@@H](C)CC)CSCSC[C@@H](C(=O)N[C@H](C(=O)N[C@@H](CCC(=O)O)C(=O)NCC(=O)N[C@@H](CCC(=O)O)C(=O)NCCOCCOCC(=O)N[C@@H](CCC(=O)O)C(=O)N[C@@H](CO)C(=O)N[C@@H](CCCCNC(=O)CC[C@H](NC(=O)CCCCCCCCCCCCCCCCC(=O)O)C(=O)O)C(N)=O)[C@@H](C)O)NC(=O)[C@H](CCCNC(=N)N)NC(=O)[C@H](Cc2c[nH]cn2)NC(=O)[C@H](CCC(=O)O)NC(=O)CN(C)C(=O)[C@H](Cc2c[nH]c3ccccc23)NC(=O)[C@H](CC(=O)O)NC(=O)[C@H](CCC(N)=O)NC(=O)[C@H](Cc2cn(C)c3ccccc23)NC1=O` [Compound 15, Ac-{d}YI[C(1)]I[1-Me-Trp]QDW[Sar]EHR[C(1)]TEGE[Peg3]ES-K([17-Carboxy-heptadecanoyl][yGlu])-NH2] (Ac-[dY]ICI[Trp(1-Me)]QDW[Sar]EHRCTEGE[AEEA]ESK([γGlu-C18 diacid])-NH2; linker 3-13 via CH2) was tested. Which IC50 did it give?
A: < 250 nM

Q: For “Ac-SEF[C(1)]IYQDW[Sar]EHR[C(1)]TEGE[Peg3]ES-K([17-Carboxy-heptadecanoy!][yGlu])-NH2 [Compound 17]”, which IC50 is on record?
A: < 500 nM

Q: “Ac-SEF[C(1)]IWQDW[Sar]EHR[C(1)]TEGE[Peg3]ES-K([17-Carboxy-heptadecanoyl][yGlu])-NH2 [Compound 16]” was tested. Which IC50 did it give?
A: < 1000 nM

Q: Which IC50 does the source give for “Ac-SEF[C(1)]I[1-Me-Trp]QDWGEHR[C(1)]TGAES[Peg3][Peg3]-K([17-Carboxy-heptadecanoyl][yGlu]G[yGlu])-NH2 [Compound 14]” here?
A: < 250 nM

Q: “Ac-SEFC(2)I[1-Me-Trp]QDWGEHRC(2)TGAES-NH2 [Compound 31]” was tested. Which IC50 did it give?
A: < 250 nM
